Where two headings read alike, the source gives them in different places.
What was measured:
[1] = molecular target: EGFR del19/T790M/C797S (Homo sapiens, UniProt P00533, C797S/DEL746-750/T790M); assay: Biochemical EGFR kinase assay (Lance Ultra TR-FRET), triple mutant del19/T790M/C797S
Outline: (§1)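 Kinase activity is measured by TR-FRET phosphopeptide detection. Compounds span 0.003 μM to 10 μM; the 1 h reaction at room temperature is quenched with EDTA, then labelled antibody (2 nM) is incubated 60 min before reading.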

[2] = molecular target: EGFR L858R/T790M/C797S (Homo sapiens, UniProt P00533, C797S/L858R/T790M); assay: Biochemical EGFR kinase assay (Lance Ultra TR-FRET), triple mutant L858R/T790M/C797S
Outline: as §1

[3] = molecular target: EGFR del19/C797S (Homo sapiens, UniProt P00533, C797S/DEL746-750); assay: Biochemical EGFR kinase assay (Lance Ultra TR-FRET), double mutant del19/C797S
Outline: as §1

[4] = molecular target: EGFR L858R/C797S (Homo sapiens, UniProt P00533, C797S/L858R); assay: Biochemical EGFR kinase assay (Lance Ultra TR-FRET), double mutant L858R/C797S
Outline: as §1

[5] = molecular target: EGFR wildtype (Homo sapiens, UniProt P00533); assay: Biochemical EGFR kinase assay (Lance Ultra TR-FRET), wildtype
Outline: as §1

[6] = ATP at Km, read-out: IC50 del19/T790M/C797S, Km ATP
[7] = ATP at Km, read-out: IC50 L858R/T790M/C797S, Km ATP
[8] = ATP at Km, read-out: IC50 del19/C797S, Km ATP
[9] = ATP at Km, read-out: IC50 L858R/C797S, Km ATP
[10] = ATP at Km, read-out: IC50 WT, Km ATP
[11] = IC50 del19/T790M/C797S, 100 μM ATP
[12] = IC50 L858R/T790M/C797S, 100 μM ATP

Chain of EGFR L858R/C797S (P00533 25-1210 C797S/L858R): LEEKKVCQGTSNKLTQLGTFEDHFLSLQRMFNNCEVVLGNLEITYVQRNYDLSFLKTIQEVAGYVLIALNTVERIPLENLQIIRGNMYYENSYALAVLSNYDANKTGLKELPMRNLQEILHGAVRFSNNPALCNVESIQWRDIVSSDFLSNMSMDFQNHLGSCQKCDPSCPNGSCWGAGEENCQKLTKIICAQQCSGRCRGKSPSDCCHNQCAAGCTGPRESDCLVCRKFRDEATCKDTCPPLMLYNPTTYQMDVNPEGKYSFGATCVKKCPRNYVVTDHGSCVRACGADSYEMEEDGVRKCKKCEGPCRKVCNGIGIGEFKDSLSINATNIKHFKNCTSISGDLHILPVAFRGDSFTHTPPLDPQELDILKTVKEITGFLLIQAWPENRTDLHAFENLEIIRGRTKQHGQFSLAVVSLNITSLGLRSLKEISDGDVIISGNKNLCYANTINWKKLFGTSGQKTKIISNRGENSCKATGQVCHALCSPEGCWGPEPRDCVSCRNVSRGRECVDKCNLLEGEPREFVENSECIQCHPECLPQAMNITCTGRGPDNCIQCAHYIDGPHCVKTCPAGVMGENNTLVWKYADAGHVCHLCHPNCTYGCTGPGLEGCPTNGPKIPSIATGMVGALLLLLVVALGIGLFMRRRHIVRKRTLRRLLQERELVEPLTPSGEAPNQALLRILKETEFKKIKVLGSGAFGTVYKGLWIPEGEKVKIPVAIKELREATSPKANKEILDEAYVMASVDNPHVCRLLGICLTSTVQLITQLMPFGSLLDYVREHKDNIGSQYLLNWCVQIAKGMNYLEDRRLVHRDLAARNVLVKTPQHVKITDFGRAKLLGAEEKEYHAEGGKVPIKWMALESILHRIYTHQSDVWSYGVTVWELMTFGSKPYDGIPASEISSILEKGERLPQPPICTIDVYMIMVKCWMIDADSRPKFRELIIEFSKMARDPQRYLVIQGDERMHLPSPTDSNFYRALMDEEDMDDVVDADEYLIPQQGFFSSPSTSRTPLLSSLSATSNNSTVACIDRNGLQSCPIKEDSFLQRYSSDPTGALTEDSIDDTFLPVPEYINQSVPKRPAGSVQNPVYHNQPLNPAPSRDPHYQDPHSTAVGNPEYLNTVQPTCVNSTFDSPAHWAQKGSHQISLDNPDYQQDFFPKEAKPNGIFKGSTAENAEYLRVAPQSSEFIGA
Chain of EGFR del19/T790M/C797S (P00533 with tags, fused parts or gaps DEL746-750/T790M/C797S): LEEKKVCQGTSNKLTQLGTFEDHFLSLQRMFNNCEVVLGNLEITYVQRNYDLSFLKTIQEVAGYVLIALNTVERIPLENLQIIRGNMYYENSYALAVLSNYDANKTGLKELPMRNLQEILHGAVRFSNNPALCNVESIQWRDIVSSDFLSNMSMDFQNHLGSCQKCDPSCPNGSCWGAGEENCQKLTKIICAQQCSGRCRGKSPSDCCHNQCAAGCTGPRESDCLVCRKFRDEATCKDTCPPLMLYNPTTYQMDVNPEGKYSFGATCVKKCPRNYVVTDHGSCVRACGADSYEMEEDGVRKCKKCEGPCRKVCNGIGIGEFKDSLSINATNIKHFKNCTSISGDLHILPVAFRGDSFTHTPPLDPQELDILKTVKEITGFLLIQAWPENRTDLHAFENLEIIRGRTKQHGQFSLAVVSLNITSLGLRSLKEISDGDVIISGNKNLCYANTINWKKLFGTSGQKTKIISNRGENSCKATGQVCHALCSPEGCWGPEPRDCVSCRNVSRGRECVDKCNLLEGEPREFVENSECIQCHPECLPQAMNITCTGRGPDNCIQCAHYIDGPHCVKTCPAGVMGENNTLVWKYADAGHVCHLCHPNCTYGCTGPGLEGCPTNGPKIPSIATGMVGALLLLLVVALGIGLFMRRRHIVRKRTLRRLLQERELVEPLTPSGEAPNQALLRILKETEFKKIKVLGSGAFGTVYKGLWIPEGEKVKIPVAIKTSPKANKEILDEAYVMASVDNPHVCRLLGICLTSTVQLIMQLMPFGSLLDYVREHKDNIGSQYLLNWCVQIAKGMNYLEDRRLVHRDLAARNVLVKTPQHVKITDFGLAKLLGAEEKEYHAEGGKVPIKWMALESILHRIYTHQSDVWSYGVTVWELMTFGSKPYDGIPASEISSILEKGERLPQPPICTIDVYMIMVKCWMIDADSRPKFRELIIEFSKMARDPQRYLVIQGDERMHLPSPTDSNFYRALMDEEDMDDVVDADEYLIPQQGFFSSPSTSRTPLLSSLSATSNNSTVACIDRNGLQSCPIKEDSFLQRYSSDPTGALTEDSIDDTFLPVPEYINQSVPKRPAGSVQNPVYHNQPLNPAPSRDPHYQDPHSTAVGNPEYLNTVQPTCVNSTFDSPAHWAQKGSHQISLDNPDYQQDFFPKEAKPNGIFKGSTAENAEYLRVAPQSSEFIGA
Chain of EGFR del19/C797S (P00533 with tags, fused parts or gaps DEL746-750/C797S): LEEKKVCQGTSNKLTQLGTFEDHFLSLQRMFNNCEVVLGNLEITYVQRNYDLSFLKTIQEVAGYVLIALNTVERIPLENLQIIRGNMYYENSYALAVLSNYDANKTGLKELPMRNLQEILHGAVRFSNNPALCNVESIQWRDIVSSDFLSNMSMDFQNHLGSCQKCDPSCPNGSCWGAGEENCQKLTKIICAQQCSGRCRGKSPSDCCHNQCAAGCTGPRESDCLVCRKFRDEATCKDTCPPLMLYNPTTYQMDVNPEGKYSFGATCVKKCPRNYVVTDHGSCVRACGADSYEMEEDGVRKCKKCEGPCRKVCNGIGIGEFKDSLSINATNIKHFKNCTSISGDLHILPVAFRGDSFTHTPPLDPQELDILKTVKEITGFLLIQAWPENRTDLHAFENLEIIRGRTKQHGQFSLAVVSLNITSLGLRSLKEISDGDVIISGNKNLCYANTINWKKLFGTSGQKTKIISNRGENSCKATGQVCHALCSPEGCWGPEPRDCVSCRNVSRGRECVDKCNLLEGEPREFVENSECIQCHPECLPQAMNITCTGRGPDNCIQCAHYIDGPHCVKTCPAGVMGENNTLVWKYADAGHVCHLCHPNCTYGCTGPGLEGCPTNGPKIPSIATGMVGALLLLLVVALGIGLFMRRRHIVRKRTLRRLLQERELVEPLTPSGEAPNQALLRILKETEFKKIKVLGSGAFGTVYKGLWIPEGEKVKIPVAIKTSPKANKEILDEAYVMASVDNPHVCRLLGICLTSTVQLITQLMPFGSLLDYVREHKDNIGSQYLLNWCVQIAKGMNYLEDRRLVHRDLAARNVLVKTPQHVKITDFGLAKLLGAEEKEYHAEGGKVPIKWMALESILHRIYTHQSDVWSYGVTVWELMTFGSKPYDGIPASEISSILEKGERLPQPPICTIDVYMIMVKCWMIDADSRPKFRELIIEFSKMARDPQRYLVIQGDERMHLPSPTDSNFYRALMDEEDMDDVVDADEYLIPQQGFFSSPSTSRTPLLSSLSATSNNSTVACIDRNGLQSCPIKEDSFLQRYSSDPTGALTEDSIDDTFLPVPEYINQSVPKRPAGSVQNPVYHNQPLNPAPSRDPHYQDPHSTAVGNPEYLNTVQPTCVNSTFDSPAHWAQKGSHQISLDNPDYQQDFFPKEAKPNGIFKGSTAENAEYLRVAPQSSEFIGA
Chain of EGFR L858R/T790M/C797S (P00533 25-1210 T790M/C797S/L858R): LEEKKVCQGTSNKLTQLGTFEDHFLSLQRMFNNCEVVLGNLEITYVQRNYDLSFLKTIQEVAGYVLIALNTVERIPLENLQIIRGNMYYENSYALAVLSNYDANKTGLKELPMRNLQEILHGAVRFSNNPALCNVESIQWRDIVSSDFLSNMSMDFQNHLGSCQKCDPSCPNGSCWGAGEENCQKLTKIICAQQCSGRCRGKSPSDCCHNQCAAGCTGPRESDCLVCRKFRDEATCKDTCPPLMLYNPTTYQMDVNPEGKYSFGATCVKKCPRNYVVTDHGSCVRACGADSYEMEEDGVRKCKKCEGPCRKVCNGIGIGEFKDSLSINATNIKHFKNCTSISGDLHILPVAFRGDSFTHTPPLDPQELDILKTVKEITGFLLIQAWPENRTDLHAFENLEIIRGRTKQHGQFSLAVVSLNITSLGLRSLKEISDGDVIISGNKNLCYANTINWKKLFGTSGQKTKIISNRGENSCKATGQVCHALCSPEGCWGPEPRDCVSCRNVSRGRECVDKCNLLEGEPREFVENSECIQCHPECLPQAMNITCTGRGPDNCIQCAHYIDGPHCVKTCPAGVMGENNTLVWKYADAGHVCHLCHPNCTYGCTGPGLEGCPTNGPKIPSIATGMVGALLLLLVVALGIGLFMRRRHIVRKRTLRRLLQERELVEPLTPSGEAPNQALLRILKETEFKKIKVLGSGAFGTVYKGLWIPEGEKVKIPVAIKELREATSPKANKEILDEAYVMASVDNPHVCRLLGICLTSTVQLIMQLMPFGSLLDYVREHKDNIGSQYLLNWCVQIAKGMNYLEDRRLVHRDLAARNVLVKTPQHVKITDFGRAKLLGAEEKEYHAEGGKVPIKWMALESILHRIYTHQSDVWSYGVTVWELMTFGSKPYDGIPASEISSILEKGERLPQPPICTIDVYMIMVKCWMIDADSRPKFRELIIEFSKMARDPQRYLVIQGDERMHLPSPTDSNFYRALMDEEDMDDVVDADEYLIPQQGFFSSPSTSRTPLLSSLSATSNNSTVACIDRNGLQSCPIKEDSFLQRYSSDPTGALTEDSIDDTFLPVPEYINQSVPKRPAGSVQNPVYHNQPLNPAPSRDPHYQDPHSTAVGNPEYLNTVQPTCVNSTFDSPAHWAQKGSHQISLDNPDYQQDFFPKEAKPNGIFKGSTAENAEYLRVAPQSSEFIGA

IC50 [1, 6] [nM] | IC50 [2, 7] [nM] | IC50 [3, 8] [nM] | IC50 [4, 9] [nM] | IC50 [5, 10] [nM] | IC50 ([3]; IC50 del19/C797S, 100 μM ATP) [nM] | IC50 ([4]; IC50 L858R/C797S, 100 μM ATP) [nM] | IC50 ([5]; IC50 WT, 100 μM ATP) [nM] | IC50 [1, 11] [nM] | IC50 [2, 12] [nM] | Structure (SMILES)
0.9 | 1.9 | 3.7 | 9 | 40.5 |  |  |  |  |  | CC(C)(O)c1ccc(-c2cnc(Nc3ccnc(-c4cnn(S(=O)(=O)C5CC5)c4)n3)cc2NC2CCCN(CCF)C2)nc1 (stereo not drawn) [Example 177, 2-(6′-((2-(1-(Cyclopropylsulfonyl)-1H-pyrazol-4-yl)pyrimidin-4-yl)amino)-4′-((1-(2-fluoroethyl)piperidin-3-yl)amino)-[2,3′-bipyridin]-5-yl)propan-2-ol]
0.7 | 1 | 2.6 | 4.7 | 96.5 |  |  |  |  |  | CC(C)(O)c1ccc(-c2cnc(Nc3ccnc(-c4cnn(S(=O)(=O)C5CC5)c4)n3)cc2NC2CCN(CC(F)F)CC2)nc1 [Example 178, 2-(6′-((2-(1-(Cyclopropylsulfonyl)-1H-pyrazol-4-yl)pyrimidin-4-yl)amino)-4′-((1-(2,2-difluoroethyl)piperidin-4-yl)amino)-[2,3′-bipyridin]-5-yl)propan-2-ol]
0.9 | 0.4 | 0.6 |  | 4.1 | 2.8 | 3.6 | > 10000 |  |  | Cc1ccc(-c2cnc(Nc3ccnc(-c4cnn(S(=O)(=O)C5CC5)c4)n3)cc2N[C@H]2CC[C@@](C)(O)CC2)nc1F [Example 179, (1s,4s)-4-((6′-((2-(1-(Cyclopropylsulfonyl)-1H-pyrazol-4-yl)pyrimidin-4-yl)amino)-6-fluoro-5-methyl-[2,3′-bipyridin]-4′-yl)amino)-1-methylcyclohexan-1-ol]
5.8 | 2.5 | 6 | 12 | 47.5 | 30.7 | 67.7 | > 10000 | 8.5 | 9.1 | Cc1ccc(-c2cnc(Nc3ccnc(-c4cnn(S(=O)(=O)C5CC5)c4)n3)cc2N[C@H]2CC[C@@H](C(C)(C)O)CC2)nc1F [Example 180, 2-((1s,4s)-4-((6′-((2-(1-(Cyclopropylsulfonyl)-1H-pyrazol-4-yl)pyrimidin-4-yl)amino)-6-fluoro-5-methyl-[2,3′-bipyridin]-4′-yl)amino)cyclohexyl)propan-2-ol]
5.5 | 2.2 | 16.2 | 19.7 | 129 | 41.5 | 157 | > 10000 | 10 | 20.3 | C[C@]1(O)CC[C@@H](Nc2cc(Nc3ccnc(-c4cnn(S(=O)(=O)C5CC5)c4)n3)ncc2-c2ccc(C(F)(F)F)c(F)n2)CC1 [Example 181, (1s,4s)-4-((6′-((2-(1-(Cyclopropylsulfonyl)-1H-pyrazol-4-yl)pyrimidin-4-yl)amino)-6-fluoro-5-(trifluoromethyl)-[2,3′-bipyridin]-4′-yl)amino)-1-methylcyclohexan-1-ol]
9.1 |  | 2.7 | 2.2 | 15.2 | 12.2 | 12.9 | > 10000 | 2.8 | 0.8 | CC(C)(O)[C@H]1CC[C@@H](Nc2cc(Nc3ccnc(-c4cnn(S(=O)(=O)C5CC5)c4)n3)ncc2-c2ccc(S(=O)(=O)N3CCOCC3)cn2)CC1 [Example 184, 2-((1s,4s)-4-((6′-((2-(1-(Cyclopropylsulfonyl)-1H-pyrazol-4-yl)pyrimidin-4-yl)amino)-5-(morpholinosulfonyl)-[2,3′-bipyridin]-4′-yl)amino)cyclohexyl)propan-2-ol]
2 |  | 6.7 | 3 | 111 | 20.3 | 32.1 | > 10000 | 8.3 | 1.9 | C[C@]1(O)CC[C@@H](Nc2cc(Nc3ccnc(-c4cnn(S(=O)(=O)C5CC5)c4)n3)ncc2-c2cnc(F)cn2)CC1 [Example 185, (1s,4s)-4-((2-((2-(1-(Cyclopropylsulfonyl)-1H-pyrazol-4-yl)pyrimidin-4-yl)amino)-5-(5-fluoropyrazin-2-yl)pyridin-4-yl)amino)-1-methylcyclohexan-1-ol]
3.8 |  | 11.5 | 5.8 | 744 | 56.8 | 165 | > 10000 | 29 | 4.8 | CC(C)(O)[C@H]1CC[C@@H](Nc2cc(Nc3ccnc(-c4cnn(S(=O)(=O)C5CC5)c4)n3)ncc2-c2cnc(F)cn2)CC1 [Example 186, 2-((1s,4s)-4-((2-((2-(1-(Cyclopropylsulfonyl)-1H-pyrazol-4-yl)pyrimidin-4-yl)amino)-5-(5-fluoropyrazin-2-yl)pyridin-4-yl)amino)cyclohexyl)propan-2-ol]
 |  |  |  |  | 178 | 1950 | > 10000 | 239 | 96.9 | CC1CCN(S(=O)(=O)c2ccc(-c3cnc(Nc4ccnc(-c5cnn(S(=O)(=O)C6CC6)c5)n4)cc3N[C@H]3CC[C@@H](C(C)(C)O)CC3)nc2)CC1 [Example 187, 2-((1s,4s)-4-((6′-((2-(1-(Cyclopropylsulfonyl)-1H-pyrazol-4-yl)pyrimidin-4-yl)amino)-5-((4-methylpiperidin-1-yl)sulfonyl)-[2,3′-bipyridin]-4′-yl)amino)cyclohexyl)propan-2-ol]
 |  | 2.3 | 0.8 | 9.5 | 1.8 | 11.3 | > 10000 | 1.1 | 1 | CN1CCN(S(=O)(=O)c2ccc(-c3cnc(Nc4ccnc(-c5cnn(S(=O)(=O)C6CC6)c5)n4)cc3N[C@H]3CC[C@@](C)(O)CC3)nc2)CC1 [Example 188, (1s,4s)-4-((6′-((2-(1-(Cyclopropylsulfonyl)-1H-pyrazol-4-yl)pyrimidin-4-yl)amino)-5-((4-methylpiperazin-1-yl)sulfonyl)-[2,3′-bipyridin]-4′-yl)amino)-1-methylcyclohexan-1-ol]
 |  | 2.2 | 0.9 | 6.9 | 1.7 | 7.9 | 1770 | 1.4 | 0.8 | CN1CCN(S(=O)(=O)c2ccc(-c3cnc(Nc4ccnc(-c5cnn(S(=O)(=O)C6CC6)c5)n4)cc3N[C@H]3CC[C@@H](CO)CC3)nc2)CC1 [Example 189, ((1s,4s)-4-((6′-((2-(1-(Cyclopropylsulfonyl)-1H-pyrazol-4-yl)pyrimidin-4-yl)amino)-5-((4-methylpiperazin-1-yl)sulfonyl)-[2,3′-bipyridin]-4′-yl)amino)cyclohexyl)methanol]
1 | 0.3 | 2.3 | 1.6 | 27.4 | 6.5 | 26.4 | > 10000 | 1.7 |  | C[C@]1(O)CC[C@@H](Nc2nccc(-c3cnc(Nc4ccnc(-c5cnn(S(=O)(=O)C6CC6)c5)n4)cc3N[C@H]3CC[C@@](C)(O)CC3)n2)CC1 [Example 191, (1s,4s)-4-((4-(6-((2-(1-(Cyclopropylsulfonyl)-1H-pyrazol-4-yl)pyrimidin-4-yl)amino)-4-(((1s,4s)-4-hydroxy-4-methylcyclohexyl)amino)pyridin-3-yl)pyrimidin-2-yl)amino)-1-methylcyclohexan-1-ol]
 |  |  |  |  | 2 | 7.8 | 6510 | 0.6 | 0.5 | O=S(=O)(C1CC1)n1cc(-c2nccc(Nc3cc(N[C@H]4CC[C@@H](CO)CC4)c(-c4ccnc(N[C@H]5CC[C@@H](CO)CC5)n4)cn3)n2)cn1 [Example 192, ((1s,4s)-4-((4-(6-((2-(1-(Cyclopropylsulfonyl)-1H-pyrazol-4-yl)pyrimidin-4-yl)amino)-4-(((1s,4s)-4-(hydroxymethyl)cyclohexyl)amino)pyridin-3-yl)pyrimidin-2-yl)amino)cyclohexyl)methanol]
 |  |  |  |  | 23.5 | 187 | > 10000 | 3 | 3.8 | CC(C)(O)[C@H]1CC[C@@H](Nc2nccc(-c3cnc(Nc4ccnc(-c5cnn(S(=O)(=O)C6CC6)c5)n4)cc3N[C@H]3CC[C@@H](C(C)(C)O)CC3)n2)CC1 [Example 193, 2-((1s,4s)-4-((4-(6-((2-(1-(Cyclopropylsulfonyl)-1H-pyrazol-4-yl)pyrimidin-4-yl)amino)-4-(((1s,4s)-4-(2-hydroxypropan-2-yl)cyclohexyl)amino)pyridin-3-yl)pyrimidin-2-yl)amino)cyclohexyl)propan-2-ol]
2.5 | 0.6 | 5.5 | 3.9 | 36.7 | 16.9 | 43.7 | > 10000 | 3.4 | 2.2 | C[C@]1(O)CC[C@@H](Nc2cc(Nc3ccnc(-c4cnn(S(=O)(=O)C5CC5)c4)n3)ncc2-c2ccc(OC(F)(F)F)cn2)CC1 [Example 194, (1s,4s)-4-((6′-((2-(1-(Cyclopropylsulfonyl)-1H-pyrazol-4-yl)pyrimidin-4-yl)amino)-5-(trifluoromethoxy)-[2,3′-bipyridin]-4′-yl)amino)-1-methylcyclohexan-1-ol]

— patent US12258328B2, “6-membered heteroaryl-containing aminopyridine compounds as EGFR inhibitors” (YUHAN CORPORATION, priority 2021, dated 2025)
